Assay: xn = mol fraction of the nth substance listed
Details: 102 kPa, Liquid; for speed of sound: Frequency=3 MHz, Single path-length method; for mass density: Vibrating tube method; for viscosity: Concentric cylinders viscometry

CCCCCC1CCCCC1 [pentylcyclohexane] + CCCCCCCCCCCC
Details | mass density [kg/m3] | speed of sound [m/s] | viscosity [mPa·s]
288.15 K, x1 = 0.1009 | 757.14 | 1321.1 | –
288.15 K, x1 = 0.2001 | 761.98 | 1324.9 | –
288.15 K, x1 = 0.3003 | 767.03 | 1329.1 | –
288.15 K, x1 = 0.4009 | 772.26 | 1333.4 | –
288.15 K, x1 = 0.5001 | 777.64 | 1338.1 | –
288.15 K, x1 = 0.6 | 783.17 | 1343 | –
288.15 K, x1 = 0.7003 | 789 | 1348.1 | –
288.15 K, x1 = 0.8136 | 795.88 | 1354.4 | –
288.15 K, x1 = 0.9082 | 801.77 | 1359.9 | –
288.15 K, x1 = 1 | 807.78 | 1365.8 | –
293.15 K, x1 = 0.1009 | 753.52 | 1301.6 | 1.5
293.15 K, x1 = 0.2001 | 758.36 | 1305.5 | 1.51
293.15 K, x1 = 0.3003 | 763.41 | 1309.6 | 1.52
293.15 K, x1 = 0.4009 | 768.64 | 1313.9 | 1.54
293.15 K, x1 = 0.5001 | 774.02 | 1318.6 | 1.55
293.15 K, x1 = 0.6 | 779.55 | 1323.4 | 1.57
293.15 K, x1 = 0.7003 | 785.37 | 1328.5 | 1.6
293.15 K, x1 = 0.8136 | 792.25 | 1334.7 | 1.62
293.15 K, x1 = 0.9082 | 798.13 | 1340.2 | 1.66
293.15 K, x1 = 1 | 804.13 | 1346 | 1.69
298.15 K, x1 = 0.1009 | 749.9 | 1282.5 | –
298.15 K, x1 = 0.2001 | 754.73 | 1286.2 | –
298.15 K, x1 = 0.3003 | 759.79 | 1290.3 | –
298.15 K, x1 = 0.4009 | 765.01 | 1294.6 | –
298.15 K, x1 = 0.5001 | 770.39 | 1299.2 | –
298.15 K, x1 = 0.6 | 775.92 | 1304 | –
298.15 K, x1 = 0.7003 | 781.74 | 1309.1 | –
298.15 K, x1 = 0.8136 | 788.61 | 1315.2 | –
298.15 K, x1 = 0.9082 | 794.48 | 1320.6 | –
298.15 K, x1 = 1 | 800.48 | 1326.4 | –
303.15 K, x1 = 0.1009 | 746.27 | 1263.2 | 1.28
303.15 K, x1 = 0.2001 | 751.1 | 1267.1 | 1.29
303.15 K, x1 = 0.3003 | 756.16 | 1271.2 | 1.3
303.15 K, x1 = 0.4009 | 761.38 | 1275.4 | 1.31
303.15 K, x1 = 0.5001 | 766.76 | 1280 | 1.32
303.15 K, x1 = 0.6 | 772.28 | 1284.8 | 1.34
303.15 K, x1 = 0.7003 | 778.1 | 1289.8 | 1.35
303.15 K, x1 = 0.8136 | 784.97 | 1295.8 | 1.38
303.15 K, x1 = 0.9082 | 790.84 | 1301.1 | 1.4
303.15 K, x1 = 1 | 796.82 | 1306.7 | 1.43
313.15 K, x1 = 0.1009 | 738.99 | 1225.5 | 1.08
313.15 K, x1 = 0.2001 | 743.83 | 1229.3 | 1.09
313.15 K, x1 = 0.3003 | 748.88 | 1233.4 | 1.1
313.15 K, x1 = 0.4009 | 754.1 | 1237.6 | 1.11
313.15 K, x1 = 0.5001 | 759.47 | 1242.1 | 1.12
313.15 K, x1 = 0.6 | 764.99 | 1246.8 | 1.14
313.15 K, x1 = 0.7003 | 770.8 | 1251.7 | 1.15
313.15 K, x1 = 0.8136 | 777.66 | 1257.6 | 1.17
313.15 K, x1 = 0.9082 | 783.52 | 1262.8 | 1.19
313.15 K, x1 = 1 | 789.49 | 1268.2 | 1.21
323.15 K, x1 = 0.1009 | 731.68 | 1188.3 | 0.941
323.15 K, x1 = 0.2001 | 736.51 | 1192.1 | 0.949
323.15 K, x1 = 0.3003 | 741.57 | 1196.2 | 0.957
323.15 K, x1 = 0.4009 | 746.79 | 1200.3 | 0.967
323.15 K, x1 = 0.5001 | 752.16 | 1204.8 | 0.976
323.15 K, x1 = 0.6 | 757.67 | 1209.6 | 0.988
323.15 K, x1 = 0.7003 | 763.48 | 1214.3 | 1
323.15 K, x1 = 0.8136 | 770.33 | 1220.1 | 1.02
323.15 K, x1 = 0.9082 | 776.17 | 1225.1 | 1.03
323.15 K, x1 = 1 | 782.14 | 1230.5 | 1.05
333.15 K, x1 = 0.1009 | 724.33 | 1151.9 | 0.819
333.15 K, x1 = 0.2001 | 729.17 | 1155.8 | 0.825
333.15 K, x1 = 0.3003 | 734.22 | 1159.8 | 0.833
333.15 K, x1 = 0.4009 | 739.44 | 1163.9 | 0.841
333.15 K, x1 = 0.5001 | 744.8 | 1168.3 | 0.851
333.15 K, x1 = 0.6 | 750.31 | 1172.9 | 0.861
333.15 K, x1 = 0.7003 | 756.11 | 1177.6 | 0.871
333.15 K, x1 = 0.8136 | 762.96 | 1183.4 | 0.887
333.15 K, x1 = 0.9082 | 768.8 | 1188.4 | 0.897
333.15 K, x1 = 1 | 774.75 | 1193.5 | 0.914
